From ChEMBL document CHEMBL1208702, “Use of 2-[(18)F]fluoroethylazide for the Staudinger ligation - Preparation and characterisation of GABA(A) receptor binding 4-quinolones” (Bioorg Med Chem Lett, 2010)

How the values were obtained:
Kidney [1] = assay: Biodistribution in iv dosed Sprague-Dawley rats kidneys after 0.5 min by gamma counter; assay type: ADME, organism-based; conditions: rat, in vivo
Spleen [2] = assay: Biodistribution in iv dosed Sprague-Dawley rats spleen after 0.5 min by gamma counter; assay type: ADME, organism-based; conditions: rat, in vivo
Kidney [3] = assay: Biodistribution in iv dosed Sprague-Dawley rats kidneys after 10 mins by gamma counter; assay type: ADME, organism-based; conditions: rat, in vivo
Lung [4] = assay: Biodistribution in iv dosed Sprague-Dawley rats lung after 10 mins by gamma counter; assay type: ADME, organism-based; conditions: rat, in vivo
Kidney [5] = assay: Biodistribution in iv dosed Sprague-Dawley rats kidneys after 2 mins by gamma counter; assay type: ADME, organism-based; conditions: rat, in vivo
[6] = Biodistribution in iv dosed Sprague-Dawley rats small intestine after 0.5 min by gamma counter; assay type: ADME, organism-based; conditions: rat, in vivo
[7] = Biodistribution in iv dosed Sprague-Dawley rats large intestine after 60 mins by gamma counter; assay type: ADME, organism-based; conditions: rat, in vivo, 1 h
Heart [8] = assay: Biodistribution in iv dosed Sprague-Dawley rats heart after 2 mins by gamma counter; assay type: ADME, organism-based; conditions: rat, in vivo
Liver [9] = assay: Biodistribution in iv dosed Sprague-Dawley rats liver after 30 mins by gamma counter; assay type: ADME, organism-based; conditions: rat, in vivo, 0.5 h
[10] = Drug uptake in Wistar rat brain prefrontal cortex olfactory tubercles at 0.1 MBq/ml after 60 mins by autoradiographic analysis; assay type: ADME, tissue-based; conditions: in vivo, 1 h
Muscle tissue [11] = assay: Biodistribution in iv dosed Sprague-Dawley rats muscle after 60 mins by gamma counter; assay type: ADME, organism-based; conditions: rat, in vivo, 1 h
Muscle tissue [12] = assay: Biodistribution in iv dosed Sprague-Dawley rats muscle after 0.5 min by gamma counter; assay type: ADME, organism-based; conditions: rat, in vivo
Spleen [13] = assay: Biodistribution in iv dosed Sprague-Dawley rats spleen after 60 mins by gamma counter; assay type: ADME, organism-based; conditions: rat, in vivo, 1 h
[14] = Drug uptake in high GABAA expression areas of Wistar rat brain prefrontal cortex at 0.1 MBq/ml after 60 mins by autoradiographic analysis; assay type: ADME, tissue-based; conditions: in vivo, 1 h
[15] = Biodistribution in iv dosed Sprague-Dawley rats stomach after 2 mins by gamma counter; assay type: ADME, organism-based; conditions: rat, in vivo
[16] = Biodistribution in iv dosed Sprague-Dawley rats bladder and urine after 0.5 min by gamma counter; assay type: ADME, organism-based; conditions: rat, in vivo
Kidney [17] = assay: Biodistribution in iv dosed Sprague-Dawley rats kidneys after 30 mins by gamma counter; assay type: ADME, organism-based; conditions: rat, in vivo, 0.5 h
Lung [18] = assay: Biodistribution in iv dosed Sprague-Dawley rats lung after 2 mins by gamma counter; assay type: ADME, organism-based; conditions: rat, in vivo
Lung [19] = assay: Biodistribution in iv dosed Sprague-Dawley rats lung after 0.5 min by gamma counter; assay type: ADME, organism-based; conditions: rat, in vivo
Bone [20] = assay: Biodistribution in iv dosed Sprague-Dawley rats bone after 0.5 min by gamma counter; assay type: ADME, organism-based, Bone element; conditions: rat, in vivo
Liver [21] = assay: Biodistribution in iv dosed Sprague-Dawley rats liver after 0.5 min by gamma counter; assay type: ADME, organism-based; conditions: rat, in vivo
Heart [22] = assay: Biodistribution in iv dosed Sprague-Dawley rats heart after 10 mins by gamma counter; assay type: ADME, organism-based; conditions: rat, in vivo
Heart [23] = assay: Biodistribution in iv dosed Sprague-Dawley rats heart after 0.5 min by gamma counter; assay type: ADME, organism-based; conditions: rat, in vivo
[24] = Biodistribution in iv dosed Sprague-Dawley rats stomach after 60 mins by gamma counter; assay type: ADME, organism-based; conditions: rat, in vivo, 1 h
[25] = Biodistribution in iv dosed Sprague-Dawley rats fat after 30 mins by gamma counter; assay type: ADME, organism-based, Adipose tissue; conditions: rat, in vivo, 0.5 h
Brain = assay: Biodistribution in iv dosed Sprague-Dawley rats brain after 2 mins by gamma counter; assay type: ADME, organism-based; conditions: rat, in vivo
[26] = Biodistribution in iv dosed Sprague-Dawley rats stomach after 0.5 min by gamma counter; assay type: ADME, organism-based; conditions: rat, in vivo
Bone [27] = assay: Biodistribution in iv dosed Sprague-Dawley rats bone after 30 mins by gamma counter; assay type: ADME, organism-based, Bone element; conditions: rat, in vivo, 0.5 h
[28] = Biodistribution in iv dosed Sprague-Dawley rats small intestine after 10 mins by gamma counter; assay type: ADME, organism-based; conditions: rat, in vivo
[29] = Drug uptake in low GABAA expression areas of Wistar rat brain thalamus/striatum cortex at 0.1 MBq/ml after 60 mins by autoradiographic analysis; assay type: ADME, tissue-based; conditions: in vivo, 1 h
[30] = Biodistribution in iv dosed Sprague-Dawley rats fat after 2 mins by gamma counter; assay type: ADME, organism-based, Adipose tissue; conditions: rat, in vivo
Blood [31] = assay: Biodistribution in iv dosed Sprague-Dawley rats blood after 10 mins by gamma counter; assay type: ADME, organism-based; conditions: rat, in vivo
Spleen [32] = assay: Biodistribution in iv dosed Sprague-Dawley rats spleen after 2 mins by gamma counter; assay type: ADME, organism-based; conditions: rat, in vivo
Spleen [33] = assay: Biodistribution in iv dosed Sprague-Dawley rats spleen after 10 mins by gamma counter; assay type: ADME, organism-based; conditions: rat, in vivo
Blood [34] = assay: Biodistribution in iv dosed Sprague-Dawley rats blood after 0.5 min by gamma counter; assay type: ADME, organism-based; conditions: rat, in vivo
Blood [35] = assay: Biodistribution in iv dosed Sprague-Dawley rats blood after 30 mins by gamma counter; assay type: ADME, organism-based; conditions: rat, in vivo, 0.5 h
[36] = Biodistribution in iv dosed Sprague-Dawley rats stomach after 30 mins by gamma counter; assay type: ADME, organism-based; conditions: rat, in vivo, 0.5 h
[37] = Biodistribution in iv dosed Sprague-Dawley rats large intestine after 0.5 min by gamma counter; assay type: ADME, organism-based; conditions: rat, in vivo

Drug uptake (Kidney [1]): 4 %ID
Drug uptake (Spleen [2]): 0.2 %ID
Drug uptake (Kidney [3]): 2.1 %ID
Drug uptake (Lung [4]): 0.6 %ID
Drug uptake (Kidney [5]): 3.6 %ID
Drug uptake [6]: 4.7 %ID
Drug uptake [7]: 1.9 %ID
Drug uptake (Heart [8]): 1.1 %ID
Drug uptake (Liver [9]): 18.7 %ID
Drug uptake [10]: 60%
Drug uptake (Muscle tissue [11]): 4.6 %ID
Drug uptake (Muscle tissue [12]): 56.1 %ID
Drug uptake (Spleen [13]): 0 %ID
Drug uptake [14]: 78%
Drug uptake [15]: 1.2 %ID
Drug uptake [16]: 0.2 %ID
Drug uptake (Kidney [17]): 1.5 %ID
Drug uptake (Lung [18]): 1.5 %ID
Drug uptake (Lung [19]): 2.9 %ID
Drug uptake (Bone [20]): 3 %ID
Drug uptake (Liver [21]): 14.6 %ID
Drug uptake (Heart [22]): 0.3 %ID
Drug uptake (Heart [23]): 2 %ID
Drug uptake [24]: 0.2 %ID
Drug uptake [25]: 1.7 %ID
Drug uptake (Brain): 0.1 %ID
Drug uptake [26]: 0.8 %ID
Drug uptake (Bone [27]): 1.5 %ID
Drug uptake [28]: 24.5 %ID
Drug uptake [29]: 76%
Drug uptake [30]: 1.8 %ID
Drug uptake (Blood [31]): 2.8 %ID
Drug uptake (Spleen [32]): 0.3 %ID
Drug uptake (Spleen [33]): 0.2 %ID
Drug uptake (Blood [34]): 8.7 %ID
Drug uptake (Blood [35]): 1.5 %ID
Drug uptake [36]: 0.5 %ID
Drug uptake [37]: 0.9 %ID
SMILES: O=C(NCC[18F])c1c[nH]c2ccc(Cc3ccccc3)cc2c1=O
